Test: xn = mol fraction of the nth substance listed
Conditions: 102.2 kPa, Liquid, Vibrating tube method

C[Si](C)(O[Si](C)(C)c1ccccc1)c1ccccc1 [1,3-diphenyltetramethyldisiloxane] + C[Si]1(CCC(F)(F)F)O[Si](C)(CCC(F)(F)F)O[Si](C)(CCC(F)(F)F)O1
mass density [kg/m3]
Conditions | 308.15 K | 313.15 K | 318.15 K | 323.15 K | 328.15 K
x1 = 0.0501 | 1225.8 | 1219.39 | 1212.88 | 1206.4 | 1199.88
x1 = 0.1001 | 1214.52 | 1208.2 | 1201.82 | 1195.45 | 1189.07
x1 = 0.1499 | 1203.4 | 1197.13 | 1190.88 | 1184.63 | 1178.37
x1 = 0.2005 | 1191.71 | 1185.57 | 1179.46 | 1173.35 | 1167.25
x1 = 0.2497 | 1180.12 | 1174.1 | 1168.1 | 1162.13 | 1156.13
x1 = 0.3 | 1167.98 | 1162.08 | 1156.21 | 1150.35 | 1144.49
x1 = 0.3431 | 1157.27 | 1151.54 | 1145.79 | 1140.01 | 1134.24
x1 = 0.4001 | 1142.74 | 1137.19 | 1131.56 | 1125.93 | 1120.32
x1 = 0.45 | 1130.1 | 1124.64 | 1119.13 | 1113.61 | 1108.09
x1 = 0.4998 | 1117.1 | 1111.69 | 1106.32 | 1100.93 | 1095.54
x1 = 0.5482 | 1104.11 | 1098.84 | 1093.55 | 1088.31 | 1083.03
x1 = 0.5996 | 1089.99 | 1084.84 | 1079.71 | 1074.57 | 1069.43
x1 = 0.6501 | 1075.78 | 1070.7 | 1065.65 | 1060.62 | 1055.6
x1 = 0.7 | 1061.47 | 1056.57 | 1051.69 | 1046.82 | 1041.93
x1 = 0.75 | 1046.74 | 1041.96 | 1037.22 | 1032.47 | 1027.7
x1 = 0.8001 | 1031.67 | 1027.02 | 1022.41 | 1017.79 | 1013.17
x1 = 0.8499 | 1016.33 | 1011.73 | 1007.33 | 1002.84 | 998.35
x1 = 0.8998 | 1000.6 | 996.22 | 991.87 | 987.37 | 983.15
x1 = 0.95 | 984.46 | 980.22 | 976.02 | 971.79 | 967.58
x1 = 1 | 967.9 | 963.8 | 959.75 | 955.65 | 951.57

— the NIST ThermoML archive (doi:10.1021/acs.jced.5b00820)
